This note sets out measurements from patent US9593157B2, “Chimeric polypeptides comprising G protein-coupled receptors and VHH antibodies” (VIB VZW, priority 2013, dated 2017).

What all share (format): binding
One assay deals with T1, M2Δi3R-Nb9-1 (Homo sapiens, UniProt P08172, A373T/DEL233-372/K374R/N2D/N3D/N6D/N9D).
T1 construct: linker […]; made in house; host or cells: Sf9 insect cells (baculovirus), membranes
T1 sequence (P08172 with tags, fused parts or gaps N2D/N3D/N6D/N9D/DEL233-372/A373T/K374R): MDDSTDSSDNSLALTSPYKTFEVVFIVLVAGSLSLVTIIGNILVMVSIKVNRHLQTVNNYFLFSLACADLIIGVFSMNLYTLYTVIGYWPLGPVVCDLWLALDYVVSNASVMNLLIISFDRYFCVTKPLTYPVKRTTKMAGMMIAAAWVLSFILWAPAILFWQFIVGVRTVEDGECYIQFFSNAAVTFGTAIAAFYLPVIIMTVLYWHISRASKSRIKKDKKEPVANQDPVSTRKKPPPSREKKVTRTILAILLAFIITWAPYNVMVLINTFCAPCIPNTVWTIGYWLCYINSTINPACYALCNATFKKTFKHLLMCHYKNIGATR
Nature of the assay: Comparative radioligand competition assay ([3H]-N methyl scopolamine) on Sf9 membranes expressing M2Δi3R-Nb9-1. As for the experimental part:
(§1) Radioligand competition binding experiments were performed on Sf9 insect cell membranes expressing either M2Δi3R (no Single-domain antibody fused) or M2Δi3R-Nb9-1. […] After filtration, membranes retained on the filter plates were washed with ice-cold wash buffer (20 mM Tris-HCl pH7.4), and filters were dried for 1 hour at 50° C.
(In a radioligand displacement assay an active substance lowers the binding of a labelled ligand.)

The next assay addresses T2, M2Δi3R (Homo sapiens, UniProt P08172, A373T/DEL233-372/K374R/N2D/N3D/N6D/N9D).
T2 construct: made in house; host or cells: Sf9 insect cells (baculovirus), membranes
T2 sequence (P08172 with tags, fused parts or gaps N2D/N3D/N6D/N9D/DEL233-372/A373T/K374R): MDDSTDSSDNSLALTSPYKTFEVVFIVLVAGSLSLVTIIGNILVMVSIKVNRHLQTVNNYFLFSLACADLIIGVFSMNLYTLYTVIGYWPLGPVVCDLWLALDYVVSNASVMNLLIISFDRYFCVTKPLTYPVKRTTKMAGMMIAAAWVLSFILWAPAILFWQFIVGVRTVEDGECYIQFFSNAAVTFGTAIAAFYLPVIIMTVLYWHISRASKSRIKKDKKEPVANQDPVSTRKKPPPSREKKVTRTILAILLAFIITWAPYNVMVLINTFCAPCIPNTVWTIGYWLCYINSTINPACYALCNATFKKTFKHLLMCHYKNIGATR
As to the kind of experiment: Comparative radioligand competition assay ([3H]-N methyl scopolamine) on Sf9 membranes expressing non-fused M2Δi3R. The settings on record: [3H]-NMS 0.5 nM. The protocol:
as §1

Another assay deals with T3, M2Δi3R-Nb9-8 (Homo sapiens, UniProt P08172, A373T/DEL233-372/K374R/N2D/N3D/N6D/N9D).
T3 construct: linker […]; His6 (C); made in house
T3 sequence (P08172 with tags, fused parts or gaps N2D/N3D/N6D/N9D/DEL233-372/A373T/K374R): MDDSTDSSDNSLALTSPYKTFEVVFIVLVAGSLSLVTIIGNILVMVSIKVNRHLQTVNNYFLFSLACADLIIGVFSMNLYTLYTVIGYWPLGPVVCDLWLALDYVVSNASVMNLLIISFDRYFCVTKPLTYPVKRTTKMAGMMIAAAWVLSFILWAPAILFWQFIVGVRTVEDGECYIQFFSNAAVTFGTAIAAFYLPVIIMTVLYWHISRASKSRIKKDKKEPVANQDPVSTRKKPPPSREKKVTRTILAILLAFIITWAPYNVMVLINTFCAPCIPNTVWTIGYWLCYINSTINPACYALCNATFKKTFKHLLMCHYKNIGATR
As to the kind of experiment: Radioligand competition on M2Δi3R-Nb9-8 fusion (data not shown).

The target in a further assay is T4, hMor1-34GS-Nb33 (Homo sapiens, UniProt P35372).
T4 construct: HA signal peptide (N); made in house; host or cells: Sf9 insect cells (baculovirus), membranes
As to the kind of experiment: biochemical.

The target of another assay is T5, hMor1-34GS-Nb10 (Homo sapiens, UniProt P35372).
T5 construct: HA signal peptide (N); made in house; host or cells: Sf9 insect cells (baculovirus), membranes
Nature of the assay: biochemical.

For assay [1], the target named is T6, non-fused β2AR365N in presence of exogenously added Nb80 (Homo sapiens, UniProt P07550, E27Q/G16R/N187E).
T6 construct: made in house; host or cells: Sf9 insect cells (baculovirus), membranes; purified Nb80 added
As to the kind of experiment: Radioligand competition assay on non-fused β2AR365N in complex with exogenously added Nb80. Particulars: epinephrine bound active state; 5 μM Nb80 in 250 μl. As for the experimental part:
To compare the efficiency of fused versus non-fused Nb80 to stabilize the active state of β2AR, the pharmacological properties of the β2AR365N-Nb80 fusion was compared to the non-fused β2AR365N in complex with exogenously added Nb80. […] The β2AR365N-Nb69 fusion and β2AR365N in complex with exogenously added Nb69 were assayed in parallel as controls.
Radioligand competition binding experiments were performed on Sf9 insect cell membranes (5 μg total protein) expressing either β2AR365N (no Single-domain antibody fused), β2AR365N-Nb80 or β2AR365N-Nb69. […] Data represent the mean±SEM of each data point performed in triplicate.

The next assay has as its target β2AR (Homo sapiens, UniProt P07550). As to the kind of experiment: Affinity of Single-domain antibody for β2AR.
In a further assay the target is Mor1 (Homo sapiens, UniProt P35372). As to the kind of experiment: Affinity of Single-domain antibody for Mor1.

As usually defined, the IC50 is the concentration that gives 50% inhibition. A high value points to weaker potency.

Description for M2Δi3R-Nb9-8: We compared the pharmacological properties of the M2Δi3R-Nb9-1 fusion with the properties of M2Δi3R (FIG. 10).

As for `C[N+](C)(C)CC#CCN1CCCC1=O` [oxotremorine M], the “IC50 ratio IC50m2Δi3R/IC50highM2Δi3R-Nb9-1” value on M2Δi3R-Nb9-1 is on record as 316. Moreover, the IC50 on M2Δi3R-Nb9-1 ([3H]-NMS 0.5 nM, Sf9 membranes, IC50high) amounted to 310 nM; at M2Δi3R it was 98400 nM.
As for `C[N+](C)(C)CCOC(N)=O` [carbachol], the “affinity of M2Δi3R-Nb9-8 fusion compared to non-fused M2Δi3R” value at M2Δi3R-Nb9-8 is recorded as “higher affinity”.
With `Cc1cc(O)cc(C)c1C[C@H](N)C(=O)N[C@H](CCCNC(=N)N)C(=O)N[C@H]1Cc2ccccc2CN(CCC(N)=O)C1=O` [KGOP01], the results for the IC50 at hMor1-34GS-Nb33 and against hMor1-34GS-Nb10 were 3.8 nM and 76.7 nM, respectively. In addition, on hMor1-34GS-Nb33, the “IC50Nb33/IC50Nb10 (fold preference)” value came out at 20.

B1: Nb80: β2AR specific Single-domain antibody stabilizing the active state, SEQ ID NO:13 (protein)
VHH: QVQLQESGGGLVQAGGSLRLSCAASGSIFSINTMGWYRQAPGKQRELVAAIHSGGSTNYANSVKGRFTISRDNAANTVYLQMNSLKPEDTAVYYCNVKDYGAVLYEYDYWGQGTQVTVSS
modifications: Nb80
As to B1, the “molar excess of exogenously added Nb80 over β2AR required to constrain the receptor with same efficiency as the fusion” value in assay [1] turned out to be 12500 fold.

B2: Nb69: mock Single-domain antibody specific for Muscarinic3 receptor, SEQ ID NO:15 (protein)
VHH: QVQLQESGGGLVQAGGSLRLSCTASGLTLSNYAMGWFRQAPGKEREFVAADTWNGNTYHQDSVKGRFTISRDNAKNTVYLQMNYLKPEDTAVYYCAARGSRRSAYYSSSDYTYRGQGTQVTVSS
modifications: Nb69
Turning to B2, the “affinity for β2AR” value with β2AR is on record as “no detectable affinity”.

B3: Nb10: Single-domain antibody specific for a chemokine GPCR, SEQ ID NO:20 (protein)
VHH: QVQLQESGGGLVQPGGSLRLSCAASGSFRSIVSMAWYRQAPGKQRELVASSNSGGSTNYADSVKGRFTISRDNAKNTVYLQMNSLKPEDTAVYWCNVQNRLPGFDAFSGRSIAETYWGQGTQVTVSS
modifications: Nb10
On to B3, for which the “affinity for Mor1” value with Mor1 was “no detectable affinity”.
